# Values joined by “and” are separate entries in the source; they are usually repeats but may differ in a detail not shown here. Identical values can stand only once.
# Assays:
# [1] = test system: Canis familiaris; test: Spermidine Distribution in kidney was determined after DESPM dosing of 1.87 mg/kg/day for 28 days in dog(cu dose-52.4) and sacrificed at 10 days PLD(cu dose-52.4 mg/kg); assay type: ADME, organism-based, Canis lupus familiaris; conditions: in vivo, 240 h
# [2] = test system: Canis familiaris; test: Spermine Distribution in kidney was determined after DESPM dosing of 6.0 mg/kg/day for 4.5 days in dog(cu dose-52.4) and sacrificed at 10 days PLD(cu dose-27 mg/kg); assay type: ADME, organism-based, Canis lupus familiaris; conditions: in vivo, 240 h
# [3] = test system: Canis familiaris; test: MESPM/MEHSPH Distribution in liver was determined after DESPM dosing of 6.0 mg/kg/day for 4.5 days in dog(cu dose-52.4) and sacrificed at 75 days PLD(cu dose-27 mg/kg); assay type: ADME, organism-based, Canis lupus familiaris; conditions: in vivo, 1800 h
# [4] = test system: Canis familiaris; test: putrescine Distribution in kidney was determined after DESPM dosing of 6.0 mg/kg/day for 4.5 days in dog and sacrificed at 10 days PLD(cu dose-27 mg/kg); assay type: ADME, organism-based, Canis lupus familiaris; conditions: in vivo, 240 h
# [5] = test system: Canis familiaris; test: MESPM/MEHSPH Distribution in kidney was determined after DESPM dosing of 1.87 mg/kg/day for 28 days in dog(cu dose-52.4) and sacrificed at 10 days PLD(cu dose-52.4 mg/kg); assay type: ADME, organism-based, Canis lupus familiaris; conditions: in vivo, 240 h
# [6] = test system: Canis familiaris; test: putrescine Distribution in liver was determined after DESPM dosing of 1.87 mg/kg/day for 28 days in dog(cu dose-52.4) and sacrificed at 10 days PLD(cu dose-52.4 mg/kg); assay type: ADME, organism-based, Canis lupus familiaris; conditions: in vivo, 240 h
# [7] = test system: Rattus norvegicus; test: Percent reduction was determined by using the ratio of mean of treated animal to that of control animal at a dose of 47 mg/kg; assay type: functional
# [8] = test system: Canis familiaris; test: Spermine Distribution in kidney was determined after DESPM dosing of 4 mg/kg/day for 13 days in dog(cu dose-52.4) and sacrificed at 75 days PLD(cu dose-52 mg/kg); assay type: ADME, organism-based, Canis lupus familiaris; conditions: in vivo, 1800 h
# [9] = test system: Canis familiaris; test: Spermidine Distribution in liver was determined after DESPM dosing of 8.0 mg/kg/day for 4.5 days in dog(cu dose-52.4) and sacrificed at 10 days PLD(cu dose-36 mg/kg); assay type: ADME, organism-based, Canis lupus familiaris; conditions: in vivo, 240 h
# [10] = The chronic toxicity was determined in female CD1 mice after (ip) administration; assay type: functional; conditions: Mus musculus
# [11] = test system: Canis familiaris; test: MESPM/MEHSPH Distribution in liver was determined after DESPM dosing of 6.0 mg/kg/day for 4.5 days in dog(cu dose-52.4) and sacrificed at 10 days PLD(cu dose-27 mg/kg); assay type: ADME, organism-based, Canis lupus familiaris; conditions: in vivo, 240 h
# [12] = test system: Rattus norvegicus; test: Weight loss of rat over the 6-h experimental period when a dose of 9.4 mg/kg (23.3 administered; assay type: functional
# [13] = The acute toxicity was determined in female CD1 mice after (ip) administration; assay type: functional; conditions: Mus musculus
# [14] = test system: Canis familiaris; test: putrescine Distribution in liver was determined after DESPM dosing of 1.87 mg/kg/day for 28 days in dog(cu dose-52.4) and sacrificed at 75 days PLD(cu dose-52.4 mg/kg); assay type: ADME, organism-based, Canis lupus familiaris; conditions: in vivo, 1800 h
# [15] = test system: Rattus norvegicus; test: Stool output of rat over the 6-h collection period when a dose of 0 mg/kg (0 administered; assay type: functional
# [16] = test system: Rattus norvegicus; test: Percent reduction was determined by using the ratio of mean of treated animal to that of control animal at a dose of 94 mg/kg; assay type: functional
# [17] = test system: Rattus norvegicus; test: Stool output of rat over the 6-h collection period when a dose of 14.3 mg/kg (35.4 administered; assay type: functional
# [18] = test system: Rattus norvegicus; test: Percent reduction was determined by using the ratio of mean of treated animal to that of control animal at a dose of 9.4 mg/kg; assay type: functional
# [19] = test system: Rattus norvegicus; test: Stool output of rat over the 6-h collection period when a dose of 4.7 mg/kg (11.6 administered; assay type: functional
# [20] = test system: Canis familiaris; test: Spermine Distribution in kidney was determined after DESPM dosing of 8.0 mg/kg/day for 4.5 days in dog(cu dose-52.4) and sacrificed at 75 days PLD(cu dose-36 mg/kg); assay type: ADME, organism-based, Canis lupus familiaris; conditions: in vivo, 1800 h
# [21] = test system: Canis familiaris; test: putrescine Distribution in liver was determined after DESPM dosing of 6.0 mg/kg/day for 4.5 days in dog(cu dose-52.4) and sacrificed at 10 days PLD(cu dose-27 mg/kg); assay type: ADME, organism-based, Canis lupus familiaris; conditions: in vivo, 240 h
# [22] = test system: Canis familiaris; test: Spermidine Distribution in liver was determined after DESPM dosing of 8.0 mg/kg/day for 4.5 days in dog(cu dose-52.4) and sacrificed at 75 days PLD(cu dose-36 mg/kg); assay type: ADME, organism-based, Canis lupus familiaris; conditions: in vivo, 1800 h
# [23] = test system: Rattus norvegicus; test: Weight loss of rat over the 6-h experimental period when a dose of 4.7 mg/kg (11.6 administered; assay type: functional
# [24] = test system: Canis familiaris; test: MESPM/MEHSPH Distribution in liver was determined after DESPM dosing of 1.87 mg/kg/day for 28 days in dog(cu dose-52.4) and sacrificed at 75 days PLD(cu dose-52.4 mg/kg); assay type: ADME, organism-based, Canis lupus familiaris; conditions: in vivo, 1800 h
# [25] = test system: Canis familiaris; test: putrescine Distribution in kidney was determined after DESPM dosing of 8.0 mg/kg/day for 4.5 days in dog and sacrificed at 75 days PLD(cu dose-36 mg/kg); assay type: ADME, organism-based, Canis lupus familiaris; conditions: in vivo, 1800 h
# [26] = test system: Canis familiaris; test: Distribution in liver was determined after DEHSPM dosing of 2.0 mg/kg/day for 29 days in dog(cu dose-52.4) and sacrificed at 10 days PLD(cu dose-22 mg/kg); assay type: ADME, organism-based, Canis lupus familiaris; conditions: in vivo, 240 h
# [27] = test system: Canis familiaris; test: Spermidine Distribution in liver was determined after DEHSPM dosing of 2.0 mg/kg/day […] in dog(cu dose-52.4) and sacrificed at 10 days PLD(cu dose-22 mg/kg); assay type: ADME, organism-based, Canis lupus familiaris; conditions: in vivo, 240 h
# [28] = test system: Canis familiaris; test: Distribution in kidney was determined after DESPM dosing of 4 mg/kg/day for 13 days in dog(cu dose-52.4) and sacrificed at 75 days PLD(cu dose-52 mg/kg); assay type: ADME, organism-based, Canis lupus familiaris; conditions: in vivo, 1800 h
# [29] = test system: Canis familiaris; test: putrescine Distribution in liver was determined after DEHSPM dosing of 2.0 mg/kg/day for 29 days in dog(cu dose-52.4) and sacrificed at 10 days PLD(cu dose-58 mg/kg); assay type: ADME, organism-based, Canis lupus familiaris; conditions: in vivo, 240 h
# [30] = test system: Canis familiaris; test: Spermidine Distribution in liver was determined after DEHSPM dosing of 2.0 mg/kg/day for 29 days in dog(cu dose-52.4) and sacrificed at 10 days PLD(cu dose-58 mg/kg); assay type: ADME, organism-based, Canis lupus familiaris; conditions: in vivo, 240 h
# [31] = test system: Canis familiaris; test: MESPM/MEHSPH Distribution in liver was determined after DEHSPM dosing of 2.0 mg/kg/day for 29 days in dog(cu dose-52.4) and sacrificed at 10 days PLD(cu dose-58 mg/kg); assay type: ADME, organism-based, Canis lupus familiaris; conditions: in vivo, 240 h
# [32] = test system: Canis familiaris; test: Spermine Distribution in kidney was determined after DEHSPM dosing of 2.0 mg/kg/day for 29 days in dog(cu dose-52.4) and sacrificed at 10 days PLD(cu dose-58 mg/kg); assay type: ADME, organism-based, Canis lupus familiaris; conditions: in vivo, 240 h
# [33] = test system: Canis familiaris; test: Distribution in kidney was determined after DESPM dosing of 1.87 mg/kg/day for 28 days in dog(cu dose-52.4) and sacrificed at 75 days PLD(cu dose-52.4 mg/kg); assay type: ADME, organism-based, Canis lupus familiaris; conditions: in vivo, 1800 h
# [34] = test system: Canis familiaris; test: Spermine Distribution in kidney was determined after DEHSPM dosing of 2.0 mg/kg/day for 29 days in dog(cu dose-52.4) and sacrificed at 10 days PLD(cu dose-22 mg/kg); assay type: ADME, organism-based, Canis lupus familiaris; conditions: in vivo, 240 h
# [35] = test system: Canis familiaris; test: MESPM/MEHSPH Distribution in kidney was determined after DEHSPM dosing of 2.0 mg/kg/day for 29 days in dog(cu dose-52.4) and sacrificed at 10 days PLD(cu dose-58 mg/kg); assay type: ADME, organism-based, Canis lupus familiaris; conditions: in vivo, 240 h
compound,measurement,setting,value
CCNCCCNCCCCNCCCNCC [BIS(ETHYL)SPERMINE],Wet weight of tissue,[1],69 nM/g
same,Wet weight of tissue,[2],654 nM/g
same,Wet weight of tissue,[3],1 nM/g
same,Wet weight of tissue,[4],7 nM/g
same,Wet weight of tissue,[5],12 nM/g
same,Wet weight of tissue,[6],86 nM/g
same,Reduction,[7],75% and 92%
same,Wet weight of tissue,[8],534 nM/g
same,Wet weight of tissue,[9],187 nM/g
same,LD50,[10],80 mg/kg
same,Wet weight of tissue,[11],23 nM/g
same,Weight loss,[12],<5.3 g
same,LD50,[13],400 mg/kg
same,Wet weight of tissue,[14],28 nM/g
same,Stool output,[15],7.5 g (350g of rat weight)-1
same,Reduction,[16],81%
same,Stool output,[17],<0.6 g (350g of rat weight)-1
same,Reduction,[18],55% and 92%
same,Stool output,[19],<3 g (350g of rat weight)-1
same,Wet weight of tissue,[20],624 nM/g
same,Wet weight of tissue,[21],87 nM/g
same,Wet weight of tissue,[22],221 nM/g
same,Weight loss,[23],<7.5 g
same,Wet weight of tissue,[24],0 nM/g
same,Wet weight of tissue,[25],6 nM/g
CCNCCCCNCCCCNCCCCNCC [DIETHYLHOMOSPERMINE],Wet weight of tissue,[26],0 nM/g
same,Wet weight of tissue,[27],68 nM/g
same,Wet weight of tissue,[28],0 nM/g
same,Wet weight of tissue,[29],19 nM/g
same,Wet weight of tissue,[30],50 nM/g
same,Wet weight of tissue,[31],72 nM/g
same,LD50,[10],38 mg/kg
same,Wet weight of tissue,[32],275 nM/g
same,LD50,[13],300 mg/kg
same,Wet weight of tissue,[33],0 nM/g
same,Wet weight of tissue,[34],611 nM/g
same,Wet weight of tissue,[35],78 nM/g
